# Publication PMC9516332 (Frontiers in Oncology, 2022)
# Like-named read-outs stand apart in the source and are kept apart here.
# Assays:
# 134 cancer cell lines [1] = assay: Cell viability assay (ATPlite, 72 hours), IC50 on cancer cell line panel
# 134 cancer cell lines [2] = system: 134 cancer cell lines
# [3] = target: panel of 255 wild-type kinases (Homo sapiens, UniProt O00311); assay: Kinase panel profiling at 1 µmol/L (MSA or IMAP), percentage inhibition; type: biochemical; conditions: CDC7/ASK kinase assay; 1 µmol/L single concentration; read-out: %-inhibition CDC7/ASK
# [4] = target: panel of 255 wild-type kinases (Homo sapiens, UniProt P42684); assay: as above; type: biochemical; conditions: ARG kinase assay; 1 µmol/L single concentration; read-out: %-inhibition ARG
smiles,measurement,setting,value
CCc1nc(C(N)=O)c(Nc2ccc(N3CCC(N4CCN(C)CC4)CC3)c(OC)c2)nc1NC1CCOCC1 [gilteritinib],IC50,"134 cancer cell lines [1]; Homo sapiens, MeWo, read-out: IC50 in cell proliferation assay, MeWo cell line",336 nM
same,IC50,"134 cancer cell lines [1]; Homo sapiens, NCCIT, read-out: IC50 in cell proliferation assay, NCC-IT cell line",307 nM
same,IC50,"134 cancer cell lines [1]; Homo sapiens, NCI-H82, read-out: IC50 in cell proliferation assay, cell line NCI-H82",300 nM
same,IC50,"134 cancer cell lines [1]; Homo sapiens, NCI-H460, read-out: IC50 in cell proliferation assay, NCI-H460 cell line",499 nM
same,IC50,"134 cancer cell lines [1]; Homo sapiens, NCI-H661, read-out: IC50 in cell proliferation assay, NCI-H661 cell line",233 nM
same,IC50,"134 cancer cell lines [1]; Homo sapiens, NCI-H716, read-out: IC50 in cell proliferation assay, cell line NCI-H716 (FGFR2-COL14A1)",584 nM
same,IC50,"134 cancer cell lines [1]; Homo sapiens, NCI-H1650, read-out: IC50 in cell proliferation assay, NCI-H1650 cell line (EGFR exon19del)",471 nM
same,IC50,"134 cancer cell lines [1]; Homo sapiens, NCI-H1975, read-out: IC50 in cell proliferation assay, NCI-H1975 cell line (EGFR p.L858R + p.T790M)",495 nM
same,IC50,"134 cancer cell lines [1]; Homo sapiens, NCI-H2228, read-out: IC50 in cell proliferation assay, NCI-H2228 cell line (EML4-ALK)",1.84 nM
same,IC50,"134 cancer cell lines [1]; Homo sapiens, OVCAR-3, read-out: IC50 in cell proliferation assay, cell line OVCAR-3",591 nM
same,IC50,"134 cancer cell lines [1]; Homo sapiens, PFSK-1, read-out: IC50 in cell proliferation assay, cell line PFSK-1",319 nM
same,IC50,"134 cancer cell lines [1]; Homo sapiens, RL95-2, read-out: IC50 in cell proliferation assay, cell line RL95-2 (EGFR p.A289V)",177 nM
same,IC50,"134 cancer cell lines [1]; Homo sapiens, RPMI-7951, read-out: IC50 in cell proliferation assay, cell line RPMI-7951 (BRAF p.V600E)",645 nM
same,IC50,"134 cancer cell lines [1]; Homo sapiens, RS4-11, read-out: IC50 in cell proliferation assay, cell line RS4;11",388 nM
same,IC50,"134 cancer cell lines [1]; Homo sapiens, Rec1, read-out: IC50 in cell proliferation assay, cell line REC-1",1390 nM
same,IC50,"134 cancer cell lines [1]; Homo sapiens, SHP77, read-out: IC50 in cell proliferation assay, cell line SHP-77",2470 nM
same,IC50,"134 cancer cell lines [1]; Homo sapiens, SK-BR-3, read-out: IC50 in cell proliferation assay, cell line SK-BR-3 (ERBB2 amplification)",12500 nM
same,IC50,"134 cancer cell lines [1]; Homo sapiens, SK-N-AS, read-out: IC50 in cell proliferation assay, cell line SK-N-AS",439 nM
same,IC50,"134 cancer cell lines [1]; Homo sapiens, SK-N-FI, read-out: IC50 in cell proliferation assay, cell line SK-N-FI",242 nM
same,IC50,"134 cancer cell lines [1]; Homo sapiens, SK-N-MC, read-out: IC50 in cell proliferation assay, cell line SK-N-MC",242 nM
same,IC50,"134 cancer cell lines [1]; Homo sapiens, SK-N-SH, read-out: IC50 in cell proliferation assay, cell line SK-N-SH (ALK p.F1174L)",415 nM
same,IC50,"134 cancer cell lines [1]; Homo sapiens, SNU-5, read-out: IC50 in cell proliferation assay, cell line SNU-5 (MET amplification)",466 nM
same,IC50,"134 cancer cell lines [1]; Homo sapiens, SNU-16, read-out: IC50 in cell proliferation assay, cell line SNU-16 (FGFR2 amplification)",1090 nM
same,IC50,"134 cancer cell lines [1]; Homo sapiens, SNU-C2B, read-out: IC50 in cell proliferation assay, cell line SNU-C2B (EGFR p.R165Q)",352 nM
same,IC50,"134 cancer cell lines [1]; Homo sapiens, SU-DHL-1, read-out: IC50 in cell proliferation assay, cell line SU-DHL-1 (NPM1-ALK)",19 nM
same,IC50,"134 cancer cell lines [1]; Homo sapiens, SU-DHL-6, read-out: IC50 in cell proliferation assay, cell line SU-DHL-6",993 nM
same,IC50,"134 cancer cell lines [1]; Homo sapiens, SUP-T1, read-out: IC50 in cell proliferation assay, cell line SUP-T1",956 nM
same,IC50,"134 cancer cell lines [1]; Homo sapiens, SW48, read-out: IC50 in cell proliferation assay, cell line SW48 (EGFR p.G719S)",286 nM
same,IC50,"134 cancer cell lines [1]; Homo sapiens, SW480, read-out: IC50 in cell proliferation assay, cell line SW480",1360 nM
same,IC50,"134 cancer cell lines [1]; Homo sapiens, SW626, read-out: IC50 in cell proliferation assay, cell line SW626",551 nM
same,IC50,"134 cancer cell lines [1]; Homo sapiens, SW780, read-out: IC50 in cell proliferation assay, cell line SW780 (FGFR3-BAIAP2L1)",483 nM
same,IC50,"134 cancer cell lines [1]; Homo sapiens, SW837, read-out: IC50 in cell proliferation assay, cell line SW837",1950 nM
same,IC50,"134 cancer cell lines [1]; Homo sapiens, SW872, read-out: IC50 in cell proliferation assay, cell line SW872 (BRAF p.V600E)",302 nM
same,IC50,"134 cancer cell lines [1]; Homo sapiens, SW900, read-out: IC50 in cell proliferation assay, cell line SW900",315 nM
same,IC50,"134 cancer cell lines [1]; Homo sapiens, SW948, read-out: IC50 in cell proliferation assay, cell line SW948",789 nM
same,IC50,"134 cancer cell lines [1]; Homo sapiens, SW982, read-out: IC50 in cell proliferation assay, cell line SW982 (BRAF p.V600E)",323 nM
same,IC50,"134 cancer cell lines [1]; Homo sapiens, SW-620, read-out: IC50 in cell proliferation assay, cell line SW620",527 nM
same,IC50,"134 cancer cell lines [1]; Homo sapiens, T98G, read-out: IC50 in cell proliferation assay, cell line T98G",819 nM
same,IC50,"134 cancer cell lines [1]; Homo sapiens, TCC-SUP, read-out: IC50 in cell proliferation assay, cell line TCCSUP",326 nM
same,IC50,"134 cancer cell lines [1]; Homo sapiens, THP-1, read-out: IC50 in cell proliferation assay, cell line THP-1",1120 nM
same,IC50,"134 cancer cell lines [1]; Homo sapiens, U2OS, read-out: IC50 in cell proliferation assay, cell line U2OS",224 nM
same,IC50,"134 cancer cell lines [1]; Homo sapiens, U-87 MG, read-out: IC50 in cell proliferation assay, cell line U-87MG ATCC",2250 nM
same,IC50,"134 cancer cell lines [1]; Homo sapiens, U-118-MG, read-out: IC50 in cell proliferation assay, cell line U-118MG",1330 nM
same,IC50,"134 cancer cell lines [1]; Homo sapiens, UMUC3, read-out: IC50 in cell proliferation assay, cell line UM-UC-3",461 nM
same,IC50,"134 cancer cell lines [1]; Hs766T, read-out: IC50 in cell proliferation assay, Hs 766T cell line",343 nM
same,IC50,"134 cancer cell lines [1]; L-82, read-out: IC50 in cell proliferation assay, L-82 cell line (NPM1-ALK)",2 nM
same,IC50,"134 cancer cell lines [1]; Rh30, read-out: IC50 in cell proliferation assay, cell line Rh30",355 nM
same,IC50,"134 cancer cell lines [1]; read-out: IC50 in cell proliferation assay, 11-18 cell line (EGFR p.L858R)",580 nM
same,IC50,"134 cancer cell lines [1]; read-out: IC50 in cell proliferation assay, Hs 852.T cell line",193 nM
same,IC50,"134 cancer cell lines [1]; read-out: IC50 in cell proliferation assay, JAR cell line",476 nM
same,IC50,"134 cancer cell lines [1]; read-out: IC50 in cell proliferation assay, cell line 5637",545 nM
same,IC50,"134 cancer cell lines [1]; read-out: IC50 in cell proliferation assay, cell line A-388",1300 nM
same,IC50,"134 cancer cell lines [1]; read-out: IC50 in cell proliferation assay, cell line DB",893 nM
same,IC50,"134 cancer cell lines [1]; read-out: IC50 in cell proliferation assay, cell line DEL (NPM1-ALK)",2.58 nM
same,IC50,"134 cancer cell lines [1]; read-out: IC50 in cell proliferation assay, cell line ES-2 (BRAF p.V600E)",712 nM
same,IC50,"134 cancer cell lines [1]; read-out: IC50 in cell proliferation assay, cell line PA-1",489 nM
same,IC50,"134 cancer cell lines [1]; read-out: IC50 in cell proliferation assay, cell line PC-3",889 nM
same,IC50,"134 cancer cell lines [1]; read-out: IC50 in cell proliferation assay, cell line RD",290 nM
same,IC50,"134 cancer cell lines [1]; read-out: IC50 in cell proliferation assay, cell line RKO (BRAF p.V600E)",1340 nM
same,IC50,"134 cancer cell lines [1]; read-out: IC50 in cell proliferation assay, cell line RL",2600 nM
same,IC50,"134 cancer cell lines [1]; read-out: IC50 in cell proliferation assay, cell line RT-4 (FGFR3-TACC3)",1390 nM
same,IC50,"134 cancer cell lines [1]; read-out: IC50 in cell proliferation assay, cell line SR (NPM1-ALK)",22 nM
same,IC50,"134 cancer cell lines [1]; read-out: IC50 in cell proliferation assay, cell line T24",329 nM
same,IC50,"134 cancer cell lines [1]; read-out: IC50 in cell proliferation assay, cell line TT (RET p.C634W)",178 nM
same,IC50,"134 cancer cell lines [1]; read-out: IC50 in cell proliferation assay, cell line VA-ES-BJ",431 nM
same,IC50,134 cancer cell lines [2],237 nM
same,inhibition at 1 µM,[3],3%
same,inhibition at 1 µM,[4],61%
